The record followed here is publication PMC8286840, “Identifying SARS-CoV-2 antiviral compounds by screening for small molecule inhibitors of Nsp3 papain-like protease” (Biochemical Journal, 2021).

Structures can show the parent of a compound that is named as a salt. Where two headings read alike, the source gives them in different places.

The target in assay [1] is T1, SARS-CoV-2 PLpro (nsp3 1564–1878) (Severe acute respiratory syndrome coronavirus 2, UniProt P0DTD1). The experiment in a line: biochemical. Further details: FRET-quenched peptide (Pro3) cleavage by PLpro, 10 min pre-incubation, slope over 20 min, normalised to no-compound control. Particulars: read-out: % of control remaining.
Assay [2] has as its target T1, SARS-CoV-2 PLpro (nsp3 1564–1878). The experiment in a line: biochemical. Further details: FRET-quenched peptide (Pro3) cleavage by PLpro, 10 min pre-incubation, slope over 20 min, normalised to no-compound control. Conditions: read-out: % of control remaining. This is another data set of the same source.

For the molecule `O=C(Nc1ncc(SCCN2CCCC2)s1)[C@]1(c2ccc(S(=O)(=O)C3CC3)cc2)C[C@H]1C1CCCCC1` [LY2608204], the remaining activity at 1.25 µM in assay [1] (Well no.=4772, low concentration screen) was found to be 100%. Also, in assay [2] (Well no.=4772, high concentration screen), the remaining activity at 3.75 µM was determined as 99.2%.

With `Cc1cc(Nc2cc(CN3CCOCC3)c3nc(C)c(Cc4ccc(Cl)cc4F)n3n2)n[nH]1` [LY2784544], the remaining activity at 1.25 µM in assay [1] (Well no.=4806, low concentration screen) amounted to 98.3%. The remaining activity at 3.75 µM in assay [2] (Well no.=4806, high concentration screen) is 101%.

In the case of `C[C@@]1(c2cc(-c3cncnc3)c(F)cc2F)CCSC(N)=N1` [LY2811376], the remaining activity at 1.25 µM in assay [1] (Well no.=4949, low concentration screen) stood at 101%. The remaining activity at 3.75 µM in assay [2] (Well no.=4949, high concentration screen) was 103%.

Consider `NC1=N[C@@]2(c3cc(NC(=O)c4ccc(F)cn4)ccc3F)COC[C@H]2CS1` [LY2886721], for which the remaining activity at 1.25 µM in assay [1] (Well no.=4774, low concentration screen) was determined as 99.9%. Further, the remaining activity at 3.75 µM in assay [2] (Well no.=4774, high concentration screen) is 102%.

As to `CN(C(=O)c1ccc(F)cc1C(F)(F)F)C1CCN(c2nnc(-c3ccnn3C)c3ccccc23)CC1` [LY2940680], the remaining activity at 1.25 µM in assay [1] (Well no.=4890, low concentration screen) is 88.9%. The remaining activity at 3.75 µM in assay [2] (Well no.=4890, high concentration screen) is 82.4%.

For `O=c1cc(N2CCOCC2)oc2c(-c3ccccc3)cccc12` [LY 294002 hydrochloride - 2-(4-Morpholinyl)-8-phenyl-4H-1-benzopyran-4-one hydrochloride], in assay [1] (Well no.=2344, low concentration screen), the remaining activity at 1.25 µM is 97.3%. Also, in assay [2] (Well no.=2344, high concentration screen), the remaining activity at 3.75 µM was 98.8%.

`O=c1cc(N2CCOCC2)oc2c(-c3ccccc3)cccc12` [LY 294002]: the remaining activity at 1.25 µM in assay [1] (Well no.=2465, low concentration screen) turned out to be 101%. The remaining activity at 3.75 µM in assay [2] (Well no.=2465, high concentration screen) was 102%.

Turning to `O=c1cc(N2CCNCC2)oc2c(-c3ccccc3)cccc12` [LY 303511], in assay [1] (Well no.=2467, low concentration screen), the remaining activity at 1.25 µM is 102%. The remaining activity at 3.75 µM in assay [2] (Well no.=2467, high concentration screen) worked out at 106%.

Take `CN(C)[C@@H]1CCc2[nH]c3ccc(NC(=O)c4ccc(F)cc4)cc3c2C1` [LY 344864]: the remaining activity at 1.25 µM in assay [1] (Well no.=7289, low concentration screen) was determined as 93.4%. In addition, the remaining activity at 3.75 µM in assay [2] (Well no.=7289, high concentration screen) is 91.2%.

Take `c1ccc(-c2[nH]ncc2-c2ccnc3ccccc23)nc1` [LY 364947 - 4-[3-(2-Pyridinyl)-1H-pyrazol-4-yl]-quinoline]: the remaining activity at 1.25 µM in assay [1] (Well no.=2622, low concentration screen) was determined as 96.3%. For the same molecule, the remaining activity at 3.75 µM in assay [2] (Well no.=2622, high concentration screen) amounted to 101%.

As to `CC(O)C(C)OC(=O)[C@@H]1C[C@@H]2c3cccc4c3c(cn4C(C)C)C[C@H]2N(C)C1` (stereo partly drawn) [LY-53,857 maleate], the remaining activity at 1.25 µM in assay [1] (Well no.=772, low concentration screen) amounted to 99.8%. In addition, the remaining activity at 3.75 µM in assay [2] (Well no.=772, high concentration screen) was 97.2%.

As to `CCCc1c(OCCCCc2nnn[nH]2)ccc(C(C)=O)c1O` [LY-171,883], in assay [1] (Well no.=835, low concentration screen), the remaining activity at 1.25 µM was 104%. Besides, the remaining activity at 3.75 µM in assay [2] (Well no.=835, high concentration screen) came to 106%.

On to `CN1C2CCC1CC(NC(=O)c1nn(C)c3ccccc13)C2` (stereo not drawn) [LY-278,584 maleate], for which, in assay [1], the remaining activity at 1.25 µM came to 98.8%. In assay [2], the remaining activity at 3.75 µM is 101%.

Consider `O=c1cc(N2CCOCC2)oc2c(-c3ccccc3)cccc12` [LY-294,002 hydrochloride], for which the remaining activity at 1.25 µM in assay [1] (Well no.=1077, low concentration screen) was 93.7%. In addition, in assay [2] (Well no.=1077, high concentration screen), the remaining activity at 3.75 µM is 90.8%.

Take `O=S1(=O)N(CCN2CC=C(c3c[nH]c4cc(F)ccc34)CC2)c2cccc3c2N1CCC3` [LY-367,265]: the remaining activity at 1.25 µM in assay [1] (Well no.=785, low concentration screen) amounted to 100%. Besides, the remaining activity at 3.75 µM in assay [2] (Well no.=785, high concentration screen) was found to be 103%.

Regarding `CCCc1c(OCCCCc2nnn[nH]2)ccc(C(C)=O)c1O` [LY-171883], the remaining activity at 1.25 µM in assay [1] (Well no.=4522, low concentration screen) was 98%. In assay [2] (Well no.=4522, high concentration screen), the remaining activity at 3.75 µM stood at 102%.

As for `CC(CCc1ccccc1)NCC(O)c1ccc(O)c(C(N)=O)c1` (stereo not drawn) [Labetalol (hydrochloride)], the remaining activity at 1.25 µM in assay [1] (Well no.=8287, low concentration screen) turned out to be 99.3%. In addition, in assay [2] (Well no.=8287, high concentration screen), the remaining activity at 3.75 µM was 94.7%.

As for `CC(CCc1ccccc1)NCC(O)c1ccc(O)c(C(N)=O)c1` (stereo not drawn) [Labetalol hydrochloride], the remaining activity at 1.25 µM in assay [1] (Well no.=975, low concentration screen) stood at 102%. Also, the remaining activity at 3.75 µM in assay [2] (Well no.=975, high concentration screen) is 101%.

As to `CCOC(=O)C1=C(C)NC(C)=C(C(=O)OCC)C1c1ccccc1/C=C/C(=O)OC(C)(C)C` [Lacidipine], the remaining activity at 1.25 µM in assay [1] (Well no.=1798, low concentration screen) turned out to be 99.9%. Besides, in assay [2] (Well no.=1798, high concentration screen), the remaining activity at 3.75 µM was 100%.

On to `O=C(C[S+]([O-])Cc1ccco1)NC/C=C\COc1cc(CN2CCCCC2)ccn1` (stereo not drawn) [Lafutidine], for which the remaining activity at 1.25 µM came out at 93.3% in assay [1] (Well no.=4722, low concentration screen) and 90.1% in assay [1] (Well no.=7581, low concentration screen). The remaining activity at 3.75 µM in assay [2] (Well no.=4722, high concentration screen) came out at 95%; in assay [2] (Well no.=7581, high concentration screen), 90.4%.

`C[C@@H]1CC[C@H]2[C@](C)(CO)[C@@H](O)CC[C@]2(C)[C@@]12CC[C@@](CO)(CCO)O2` [Lagochiline]: in assay [1] (Well no.=3651, low concentration screen), the remaining activity at 1.25 µM was determined as 100%. In addition, the remaining activity at 3.75 µM in assay [2] (Well no.=3651, high concentration screen) stood at 101%.

With `Nc1ccn([C@@H]2CS[C@H](CO)O2)c(=O)n1` [Lamivudine], the remaining activity at 1.25 µM in assay [1] (Well no.=8142, low concentration screen) was 100%. The remaining activity at 3.75 µM in assay [2] (Well no.=8142, high concentration screen) is 98.2%.

For the molecule `Nc1nnc(-c2cccc(Cl)c2Cl)c(N)n1` [Lamotrigine], the remaining activity at 1.25 µM in assay [1] (Well no.=977, low concentration screen) turned out to be 99.1%; in assay [1] (Well no.=1832, low concentration screen), 95.1%. In addition, the remaining activity at 3.75 µM worked out at 101% in assay [2] (Well no.=977, high concentration screen) and 92.9% in assay [2] (Well no.=1832, high concentration screen).

Take `Cc1c(OCC(F)(F)F)ccnc1C[S+]([O-])c1nc2ccccc2[nH]1` (stereo not drawn) [Lansoprazole]: the remaining activity at 1.25 µM in assay [1] (Well no.=1075, low concentration screen) was found to be 98.5%. Besides, the remaining activity at 3.75 µM in assay [2] (Well no.=1075, high concentration screen) was determined as 98.7%.

For the molecule `CS(=O)(=O)CCNCc1ccc(-c2ccc3ncnc(Nc4ccc(OCc5cccc(F)c5)c(Cl)c4)c3c2)o1` [Lapatinib ditosylate], the remaining activity at 1.25 µM in assay [1] (Well no.=1714, low concentration screen) is 105%. The remaining activity at 3.75 µM in assay [2] (Well no.=1714, high concentration screen) was determined as 105%.

As for `CS(=O)(=O)CCNCc1ccc(-c2ccc3ncnc(Nc4ccc(OCc5cccc(F)c5)c(Cl)c4)c3c2)o1` [Lapatinib], the remaining activity at 1.25 µM in assay [1] (Well no.=2983, low concentration screen) was 94.8%. For the same molecule, the remaining activity at 3.75 µM in assay [2] (Well no.=2983, high concentration screen) stood at 92.8%.

On to `C/C=C(/C)C(=O)O[C@H]1CC(C)=CC(=O)[C@@]2(C)CC[C@@](O)(C(C)C)[C@H]12` [Lapidin], for which the remaining activity at 1.25 µM in assay [1] (Well no.=3159, low concentration screen) amounted to 105%. For the same molecule, in assay [2] (Well no.=3159, high concentration screen), the remaining activity at 3.75 µM was 105%.

As for `CCN1C[C@]2(OC(=O)c3ccccc3NC(C)=O)CC[C@H](OC)[C@@]34[C@@H]2C[C@@H]([C@@H]13)[C@@]1(O)C[C@H](OC)[C@H]2C[C@@H]4[C@]1(O)[C@H]2OC` [Lappaconitine], in assay [1] (Well no.=3653, low concentration screen), the remaining activity at 1.25 µM turned out to be 103%. Further, in assay [2] (Well no.=3653, high concentration screen), the remaining activity at 3.75 µM is 105%.

On to `CCN(C(=O)c1c(O)c2c(Cl)cccc2n(C)c1=O)c1ccccc1` [Laquinimod (ABR-215062)], for which the remaining activity at 1.25 µM in assay [1] (Well no.=4745, low concentration screen) came to 105%. For the same molecule, in assay [2] (Well no.=4745, high concentration screen), the remaining activity at 3.75 µM came to 107%.

In the case of `CC[C@@H](C(=O)[C@@H](C)[C@@H](O)[C@H](C)CCc1ccc(C)c(O)c1C(=O)O)[C@H]1O[C@](CC)([C@H]2CC[C@](O)(CC)[C@H](C)O2)C[C@@H]1C` [Lasalocid A], in assay [1] (Well no.=3737, low concentration screen), the remaining activity at 1.25 µM turned out to be 95%. Besides, the remaining activity at 3.75 µM in assay [2] (Well no.=3737, high concentration screen) turned out to be 95.2%.

For `CN1CCC(C(=O)c2cccc(NC(=O)c3c(F)cc(F)cc3F)n2)CC1` [Lasmiditan (hydrochloride)], the remaining activity at 1.25 µM in assay [1] (Well no.=8055, low concentration screen) was determined as 97%. Besides, the remaining activity at 3.75 µM in assay [2] (Well no.=8055, high concentration screen) amounted to 98.4%.
